Assay results from US20220313697A1, “NEK6 Inhibition to Treat ALS and FTD” (VIB VZW, priority 2021, published 2022).
Ends that are not written are not given here.

Key:
poly(PR) zebrafish model = poly(PR) zebrafish model of motor axonopathy; assay type: in vivo
Method: Therefore, a morpholino-mediated NEK6 knockdown was performed in a poly(PR) zebrafish model as described in Swinnen et al (2018 Acta Neuropathol doi:10.1007/s00401-017-1796-5). In this model, micro-injection of poly(PR) encoding mRNA results in a motor axonopathy in zebrafish embryos, characterised by reduced axonal lengths and aberrant axonal branching (Swinnen et al 2018 Acta Neuropathol doi:10.1007/s00401-017-1796-5).
Zebrafish work was performed as previously described in Swinnen et al (2018 Acta Neuropathol 135, 427-443). Zebrafish oocytes were injected at one-cell stage with the indicated amounts of the morpholinos. The splice-blocking morpholino against Danio rerio nek6 (transcript ENSDART00000132599.2; morpholino sequence 5′-[…]-3′) and the standard control oligo (morpholino sequence 5′-[…]-3′) were designed and generated by Gene Tools (Philomath, USA). Injected oocytes were incubated at 28° C. After 24 hpf, the embryos were dechorionated by using a forceps. Only morphologically normal embryos were selected for downstream experiments. At 30 hpf, the selected fish were deyolked and subsequently fixed overnight at 4° C. in 4% formaldehyde in lx PBS. Fish were permeabilized with acetone for 1 h at −20° C., blocked with 1% BSA/1% DMSO/PBS for 1 h at room temperature and immune-stained with mouse anti-SV2 primary antibody followed by secondary antibody. For phenotyping, 15 consecutive embryos per condition were analyzed with imaging (Leica DM 3000 LED microscope; DMK 33UX250 USB3.0 monochrome industrial camera, The Imaging Source, Bremen, Germany) and the Lucia software (version 4.60, Laboratory Imaging, Prague, Czech Republic) by a blinded observer. For the axonal length, a standardized method was used; five predefined and consecutive motor axons (i.e. the 8th up to the 12th axon on one side) were measured in all 15 embryos. Data for axonal length were normalized to the control condition. For the abnormal branching, a predefined set of 20 consecutive motor axons (i.e. the 8th up to the 17th axon on both sides) in the same 15 embryos were analyzed visually. […]

[1] = system: hiPSC-derived cortical neurons treated with PR20; experiment: Axonal transport analysis (mitochondrial transport, MitoTracker-Red) in PR20-treated neurons; assay type: cell-based, human; conditions: for axonal transport defects observed upon PR-treatment: 200 nm I-3 or 300 nm I-18, added 3 days before and together with PR20; for number of moving mitochondria / ratio of moving mitochondria to total amount of mitochondria: 200 nm I-3 or 300 nm I-18, vs PR-treatment alone
Method: Axonal transport defects are an early event in the pathogenesis of ALS (Guo et al 2019 Semin Cell Dev Biol 99:133-150). To assess whether axonal transport defects also occur in cortical neurons from healthy donor hiPSC-cortical neurons treated with PR20 and from C9orf72 patient-derived cortical neurons, mitochondrial transport studies were performed.
To test whether chemical inhibition of NEK6 could be used as a treatment of DPR toxicity as well, the recently described NEK6 inhibitor ZINC05007751 was tested. iCas9-hiPSC derived cortical neurons (cultured for 70-80 days) were treated with 1.75 μM to 14 μM of the inhibitor at dayl and at day 3. The cells were subjected to a PR20 treatment (1.5 μM) at day 3 together with the compound. Axonal transport measurements were performed at day 4.
The same experiments are performed with the NEK6 inhibitors ZINC05007751 and with the NEK6 inhibitors described in WO2019126696A1.
DIV79-DIV84 iPSC-derived cortical neurons were loaded with MitoTracker-Red (50 nM, Invitrogen), washed and left to equilibrate (20 min) in NMM, before transferring them to a HEPES buffered salt solution (pH 7.4, 150 mM NaCl, 5 mM KCl, 1 mM MgCl2, 2 mM CaCl2, 10 mM glucose, 10 mM HEPES). Measurements were performed on an inverted Zeiss Axiovert 200M microscope (Carl Zeiss) with a 40× water immersion lens. Neurons were selected under differential interference optics (DIC) based on typical morphology consisting of a soma and long-extended neurites. MitoTracker-RED was excited at 580 nm, using a TILL Poly V light source (TILL Photonics) and image sequences were recorded (200 images at 1 Hz) onto a cooled CCD camera (PCO Sensicam-QE) using TillVisION (TILL Photonics) software. A heated gravityfed perfusion system was used to keep cells at 36±0.5° C. during the recordings. All image analysis was performed in Igor Pro (Wavemetrics) using custom written routines based on a previously described analysis algorithm (Vanden Berghe 2004 Am. J. Physiol. Gastrointest. Liver Physiol. 286, G671-G682). In brief, kymographs or spatio-temporal maps were constructed for each of the neuronal processes. In these maps, stationary mitochondria appear as vertical lines and moving mitochondria generate tilted lines. Proportions of moving and stationary mitochondria were extracted from the maps by marking and analyzing the properties of each of the mitochondrial trajectories.

[2] = system: iCas9-iPSC DIV80 neuronal progeny; assay type: cell-based; conditions: human
Method: Next, the iCas9-iPSC derived DIV79 neurons were treated with PR20 peptides to mimic DPR toxicity (Cheng et al 2019 Neuron 72:1-14; Kramer et al 2018 Nat Genet 50:603-612).
To validate results from the screen, iCas9-NPCs were individually transduced with sgRNAs directed against the top 3 candidate genes, CRKL, SNRK and NEK6, that enhanced survival in the interference screen. A 50-60% reduction in protein levels of CRKL, SNRK and NEK6 was observed after doxycycline treatment (FIG. 5). […] A more pronounced effect could be observed using sgRNAs against NEK6 and SNRK.
Resazurin (R7017, Sigma) was added to the cells in neuron maintenance medium (NMM) at a concentration of 1 μg/ml. Cells were incubated for 1 h in 37° C. with 5% CO2. […] was evaluated using 540 nm excitation and 590 nm emission settings.

[3] = co-injection of poly(PR) mRNA with 0.5 mM morpholino, 30 hpf

5′-ATGTTAGAAAGTGTACCTCGATGCA-3′ (all phosphorodiamidate morpholino (PMO)) [Nek6 morpholino]
poly(PR)-induced axonal phenotype (poly(PR) zebrafish model; co-injection of poly(PR) mRNA with 0.5 mM morpholino in oocytes): significantly prevented | aberrant axonal branching (poly(PR) zebrafish model; [3]): less aberrantly branched axons | axonal length (poly(PR) zebrafish model; [3]): partial normalization

COc1cc(N2CCN(C)CC2)ccc1Nc1ncc2c(n1)n1c(cc3ccccc31)c(=O)n2C [Compound I-3]
axonal transport defects observed upon PR-treatment [1]: statistically significantly rescues | number of moving mitochondria [1]: statistically significantly improved | ratio of moving mitochondria to total amount of mitochondria [1]: statistically significantly improved

CCOc1cc(N2CCC(O)CC2)ccc1Nc1ncc2c(n1)n1c(cc3ccccc31)c(=O)n2C [Compound I-18]
axonal transport defects observed upon PR-treatment [1]: statistically significantly rescues | number of moving mitochondria [1]: statistically significantly improved | ratio of moving mitochondria to total amount of mitochondria [1]: statistically significantly improved | number of total mitochondria ([1]; 300 nm I-18, vs PR-treatment alone): statistically significantly increased

CC1=C(C#N)C(O)=NC(=O)/C1=C\c1ccc(-c2ccccc2)o1 [ZINC05007751]
axonal transport defects induced by PR20 ([1]; 1.75 μM to 14 μM inhibitor at day 1 and day 3, PR20 1.5 μM at day 3, measured at day 4): overruled the axonal transport defects

PRPRPRPRPRPRPRPRPRPRPRPRPRPRPRPRPRPRPRPR [PR20]
axonal transport ([1]; 1.5 μM PR20, normal donor iPSC-DIV79 cortical neurons): significantly decreased | neuronal progeny died (dose-response, cell viability) [2]: 70-80%
